Data taken from ChEMBL document CHEMBL1201862, “PubChem BioAssay data set” (2004).
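Step 1: Grow cells in 96-well plates. Step 2: Expose to compound for 48 hours at 5 concentrations. Step 3: Interpolate endpoints linearly; if unreached, use highest concentration. GI50 = concentration required for 50% inhibition of growth.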 The source made the active and inactive calls. Rule as the data show it: active = GI50 up to about 1.1 µM and inactive = higher.

Columns and labels:
Test in all cases: growth of human tumour cells (NCI), 48 h
[1] = test system: 786-0
[2] = test system: A498
[3] = test system: A549
[4] = test system: ACHN
[5] = test system: CAKI-1
[6] = test system: CCRF-CEM
[7] = test system: COLO 205
[8] = test system: DU-145
[9] = test system: EKVX
[10] = test system: HCC 2998
[11] = test system: HCT-116
[12] = test system: HCT-15
[13] = test system: HL-60
[14] = test system: HOP-62
[15] = test system: HOP-92
[16] = test system: HT-29
[17] = test system: IGROV-1
[18] = test system: K562
[19] = test system: KM12
[20] = test system: LOX IMVI
[21] = test system: M14
[22] = test system: MCF7
[23] = test system: MDA-MB-231
[24] = test system: MDA-MB-435
[25] = test system: MDA-N
[26] = test system: MOLT-4
[27] = test system: NCI-H23
[28] = test system: NCI-H460
[29] = test system: NCI/ADR-RES
[30] = test system: OVCAR-3
[31] = test system: OVCAR-4
[32] = test system: OVCAR-5
[33] = test system: OVCAR-8
[34] = test system: PC-3
[35] = test system: RPMI-8226
[36] = test system: SF-295
[37] = test system: SK-MEL-28
[38] = test system: SK-MEL-2
[39] = test system: SK-MEL-5
[40] = test system: SK-OV-3
[41] = test system: SN12C
[42] = test system: SNB-19
[43] = test system: SNB-75
[44] = test system: SR
[45] = test system: SW-620
[46] = test system: T47D
[47] = test system: TK-10
[48] = test system: U-251
[49] = test system: UACC-257
[50] = test system: UACC-62
[51] = test system: UO-31
[52] = test system: Hs-578T
[53] = test system: Malme-3M
[54] = test system: NCI-H226
[55] = test system: RXF 393
[56] = test system: SF-268
[57] = test system: SF-539

For `CO[C@@H](C(=O)OC1C=CC2(CC1)C(=O)N(C)c1ccccc12)c1ccccc1` (some centres undefined), which GI50 [1] is on record?
Its GI50 is > 100 µM (inactive).

And the GI50 [2]?
The GI50 was > 100 µM (inactive).

What about the GI50 [3] of the same compound?
Its GI50 is > 100 µM (inactive).

And the GI50 [4]?
The GI50 was > 100 µM (inactive).

What about the GI50 [5] of the same compound?
Its GI50 is > 100 µM (inactive).

And the GI50 [6]?
The GI50 was > 100 µM (inactive).

And the GI50 [7]?
Its GI50 is 60 µM (inactive).

What about the GI50 [8] of the same compound?
Its GI50 is > 100 µM (inactive).

And the GI50 [9]?
Its GI50 is 57 µM (inactive).

What about the GI50 [10] of the same compound?
Its GI50 is > 100 µM (inactive).

What about the GI50 [11] of the same compound?
Its GI50 is 52.5 µM (inactive).

And the GI50 [12]?
The GI50 was greater than 100 µM.

What about the GI50 [13] of the same compound?
Its GI50 is 20.9 µM (inactive).

What about the GI50 [14] of the same compound?
Its GI50 is > 100 µM (inactive).

What about the GI50 [15] of the same compound?
The GI50 was > 100 µM (inactive).

And the GI50 [16]?
Its GI50 is 65.8 µM (inactive).

And the GI50 [17]?
The GI50 was > 100 µM (inactive).

What about the GI50 [18] of the same compound?
Its GI50 is 20 µM (inactive).

And the GI50 [19]?
Its GI50 is > 100 µM (inactive).

What about the GI50 [20] of the same compound?
The GI50 was > 100 µM (inactive).

What about the GI50 [21] of the same compound?
The GI50 was 72.6 µM (inactive).

And the GI50 [22]?
Its GI50 is 50.8 µM (inactive).

And the GI50 [23]?
Its GI50 is > 100 µM (inactive).

What about the GI50 [24] of the same compound?
The GI50 was 94.8 µM (inactive).

What about the GI50 [25] of the same compound?
The GI50 was > 100 µM (inactive).

What about the GI50 [26] of the same compound?
Its GI50 is 40.4 µM (inactive).

What about the GI50 [27] of the same compound?
The GI50 was 76.6 µM (inactive).

What about the GI50 [28] of the same compound?
Its GI50 is > 100 µM (inactive).

And the GI50 [29]?
The GI50 was 45.1 µM (inactive).

What about the GI50 [30] of the same compound?
The GI50 was > 100 µM (inactive).

What about the GI50 [31] of the same compound?
Its GI50 is 70.3 µM (inactive).

And the GI50 [32]?
The GI50 was > 100 µM (inactive).

And the GI50 [33]?
Its GI50 is > 100 µM (inactive).

What about the GI50 [34] of the same compound?
Its GI50 is > 100 µM (inactive).

And the GI50 [35]?
The GI50 was 50.6 µM (inactive).

And the GI50 [36]?
Its GI50 is > 100 µM (inactive).

What about the GI50 [37] of the same compound?
The GI50 was > 100 µM (inactive).

And the GI50 [38]?
Its GI50 is > 100 µM (inactive).

What about the GI50 [39] of the same compound?
Its GI50 is 34.3 µM (inactive).

What about the GI50 [40] of the same compound?
Its GI50 is > 100 µM (inactive).

What about the GI50 [41] of the same compound?
Its GI50 is > 100 µM (inactive).

What about the GI50 [42] of the same compound?
The GI50 was > 100 µM (inactive).

And the GI50 [43]?
Its GI50 is > 100 µM (inactive).

What about the GI50 [44] of the same compound?
Its GI50 is 42.1 µM (inactive).

And the GI50 [45]?
The GI50 was > 100 µM (inactive).

And the GI50 [46]?
The GI50 was 44.2 µM (inactive).

And the GI50 [47]?
The GI50 was > 100 µM (inactive).

And the GI50 [48]?
Its GI50 is > 100 µM (inactive).

And the GI50 [49]?
Its GI50 is 65.3 µM (inactive).

And the GI50 [50]?
Its GI50 is > 100 µM (inactive).

And the GI50 [51]?
Its GI50 is > 100 µM (inactive).

For `N#C/C(=C/n1c(=S)[nH]c2ccc([N+](=O)[O-])cc21)C(N)=O`, which GI50 [1] is on record?
The GI50 was > 100 µM (inactive).

What about the GI50 [3] of the same compound?
The GI50 was > 100 µM (inactive).

And the GI50 [4]?
Its GI50 is > 100 µM (inactive).

What about the GI50 [5] of the same compound?
Its GI50 is > 100 µM (inactive).

What about the GI50 [6] of the same compound?
Its GI50 is > 100 µM (inactive).

And the GI50 [7]?
Its GI50 is > 100 µM (inactive).

And the GI50 [8]?
The GI50 was > 100 µM (inactive).

What about the GI50 [9] of the same compound?
The GI50 was 22.2 µM (inactive).

What about the GI50 [11] of the same compound?
Its GI50 is > 100 µM (inactive).

And the GI50 [12]?
The GI50 was greater than 100 µM.

And the GI50 [13]?
The GI50 was 9.33 µM (inactive).

What about the GI50 [14] of the same compound?
Its GI50 is > 100 µM (inactive).

What about the GI50 [15] of the same compound?
Its GI50 is > 100 µM (inactive).

And the GI50 [16]?
Its GI50 is > 100 µM (inactive).

What about the GI50 [52] of the same compound?
The GI50 was > 100 µM (inactive).

What about the GI50 [17] of the same compound?
The GI50 was > 100 µM (inactive).

And the GI50 [19]?
The GI50 was > 100 µM (inactive).

And the GI50 [20]?
The GI50 was > 100 µM (inactive).

What about the GI50 [21] of the same compound?
Its GI50 is > 100 µM (inactive).

And the GI50 [22]?
The GI50 was > 100 µM (inactive).

And the GI50 [23]?
The GI50 was > 100 µM (inactive).

And the GI50 [24]?
The GI50 was > 100 µM (inactive).

And the GI50 [25]?
Its GI50 is > 100 µM (inactive).

And the GI50 [26]?
Its GI50 is > 100 µM (inactive).

What about the GI50 [53] of the same compound?
Its GI50 is > 100 µM (inactive).

What about the GI50 [54] of the same compound?
The GI50 was > 100 µM (inactive).

What about the GI50 [27] of the same compound?
The GI50 was > 100 µM (inactive).

And the GI50 [28]?
The GI50 was > 100 µM (inactive).

What about the GI50 [29] of the same compound?
The GI50 was > 100 µM (inactive).

And the GI50 [30]?
Its GI50 is > 100 µM (inactive).

What about the GI50 [31] of the same compound?
The GI50 was > 100 µM (inactive).

What about the GI50 [32] of the same compound?
Its GI50 is > 100 µM (inactive).

And the GI50 [33]?
The GI50 was > 100 µM (inactive).

And the GI50 [34]?
Its GI50 is > 100 µM (inactive).

What about the GI50 [35] of the same compound?
The GI50 was > 100 µM (inactive).

What about the GI50 [55] of the same compound?
The GI50 was > 100 µM (inactive).

And the GI50 [56]?
Its GI50 is > 100 µM (inactive).

What about the GI50 [36] of the same compound?
The GI50 was > 100 µM (inactive).

And the GI50 [57]?
The GI50 was > 100 µM (inactive).

What about the GI50 [37] of the same compound?
The GI50 was > 100 µM (inactive).

And the GI50 [38]?
The GI50 was > 100 µM (inactive).

What about the GI50 [39] of the same compound?
The GI50 was > 100 µM (inactive).

And the GI50 [40]?
Its GI50 is > 100 µM (inactive).

And the GI50 [41]?
Its GI50 is > 100 µM (inactive).

What about the GI50 [42] of the same compound?
Its GI50 is > 100 µM (inactive).

And the GI50 [43]?
Its GI50 is 19.7 µM (inactive).

What about the GI50 [44] of the same compound?
The GI50 was > 100 µM (inactive).

And the GI50 [45]?
The GI50 was > 100 µM (inactive).

And the GI50 [47]?
Its GI50 is > 100 µM (inactive).

What about the GI50 [48] of the same compound?
The GI50 was > 100 µM (inactive).

What about the GI50 [49] of the same compound?
Its GI50 is > 100 µM (inactive).

And the GI50 [50]?
The GI50 was > 100 µM (inactive).

What about the GI50 [51] of the same compound?
The GI50 was > 100 µM (inactive).
